Test results reported in patent US8329706B2, “Oxazolidinone derivatives” (Actelion Pharmaceuticals Ltd., priority 2009, dated 2012).

What was measured:
human orexin-2 receptor = target: T1, human orexin-2 receptor (Homo sapiens, UniProt O43614); test: FLIPR intracellular calcium assay, orexin receptor antagonistic activity (OX2); assay type: cell-based; conditions: CHO cells expressing human orexin-2 receptor; agonist 3 nM orexin-A; normalized to on-plate reference; * geomean n = 5, *2 geomean n = 2
T1 construct: expressed in transfected cells; host or cells: CHO cells (G418 selection)
T1 sequence (O43614 1-444): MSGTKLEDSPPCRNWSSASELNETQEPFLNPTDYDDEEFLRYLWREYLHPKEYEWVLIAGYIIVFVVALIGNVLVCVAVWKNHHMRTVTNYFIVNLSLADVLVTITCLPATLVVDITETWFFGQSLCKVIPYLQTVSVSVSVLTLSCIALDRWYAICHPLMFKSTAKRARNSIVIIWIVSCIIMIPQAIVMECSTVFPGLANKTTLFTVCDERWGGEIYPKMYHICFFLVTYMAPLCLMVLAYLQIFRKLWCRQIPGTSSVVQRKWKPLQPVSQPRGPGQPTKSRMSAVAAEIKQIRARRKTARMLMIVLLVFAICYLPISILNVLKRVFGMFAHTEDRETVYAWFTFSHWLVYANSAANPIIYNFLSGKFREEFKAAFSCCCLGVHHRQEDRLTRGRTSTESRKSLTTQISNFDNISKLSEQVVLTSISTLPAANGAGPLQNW
Method: (§1) The orexin receptor antagonistic activity of the compounds of formula (I) is determined in accordance with the following experimental method.
(§2) Chinese hamster ovary (CHO) cells expressing the human orexin-1 receptor and the human orexin-2 receptor, respectively, are grown in culture medium (Ham F-12 with L-Glutamine) containing 300 μg/ml G418, 100 U/ml penicillin, 100 μg/ml streptomycin and 10% heat inactivated fetal calf serum (FCS). The cells are seeded at 20′000 cells/well into 384-well black clear bottom sterile plates (Greiner). The seeded plates are incubated overnight at 37° C. in 5% CO2.
(§3) Human orexin-A as an agonist is prepared as 1 mM stock solution in MeOH:water (1:1), diluted in HBSS containing 0.1% bovine serum albumin (BSA), NaHCO3: 0.375 g/l and 20 mM HEPES for use in the assay at a final concentration of 3 nM.
(§4) Antagonists are prepared as 10 mM stock solution in DMSO, then diluted in 384-well plates using DMSO followed by a transfer of the dilutions into in HBSS containing 0.1% bovine serum albumin (BSA), NaHCO3: 0.375 g/l and 20 mM HEPES. On the day of the assay, 50 μl of staining buffer (HBSS containing 1% FCS, 20 mM HEPES, NaHCO3: 0.375 g/l, 5 mM probenecid (Sigma) and 3 μM of the fluorescent calcium indicator fluo-4 AM (1 mM stock solution in DMSO, containing 10% pluronic) is added to each well. The 384-well cell-plates are incubated for 50 min at 37° C. in 5% CO2 followed by equilibration at rt for 30-120 min before measurement.
(§5) Within the Fluorescent Imaging Plate Reader (FLIPR Tetra, Molecular Devices), antagonists are added to the plate in a volume of 10 μl/well, incubated for 10 min and finally 10 μl/well of agonist is added. Fluorescence is measured for each well at 1 second intervals, and the height of each fluorescence peak is compared to the height of the fluorescence peak induced by 3 nM orexin-A with vehicle in place of antagonist. For each antagonist, the IC50 value (the concentration of compound needed to inhibit 50% of the agonistic response) is determined and normalized using the obtained IC50 value of a on-plate reference compound. Optimized conditions were achieved by adjustment of pipetting speed and cell splitting regime. The calculated IC50 values of the compounds may fluctuate depending on the daily cellular assay performance. Fluctuations of this kind are known to those skilled in the art.

human orexin-1 receptor = target: T2, human orexin-1 receptor (Homo sapiens, UniProt O43613); test: FLIPR intracellular calcium assay, orexin receptor antagonistic activity (OX1); assay type: cell-based; conditions: CHO cells expressing human orexin-1 receptor; agonist 3 nM orexin-A; normalized to on-plate reference; * geomean n = 5, *2 geomean n = 2
T2 construct: expressed in transfected cells; host or cells: CHO cells (G418 selection)
T2 sequence (O43613 1-425): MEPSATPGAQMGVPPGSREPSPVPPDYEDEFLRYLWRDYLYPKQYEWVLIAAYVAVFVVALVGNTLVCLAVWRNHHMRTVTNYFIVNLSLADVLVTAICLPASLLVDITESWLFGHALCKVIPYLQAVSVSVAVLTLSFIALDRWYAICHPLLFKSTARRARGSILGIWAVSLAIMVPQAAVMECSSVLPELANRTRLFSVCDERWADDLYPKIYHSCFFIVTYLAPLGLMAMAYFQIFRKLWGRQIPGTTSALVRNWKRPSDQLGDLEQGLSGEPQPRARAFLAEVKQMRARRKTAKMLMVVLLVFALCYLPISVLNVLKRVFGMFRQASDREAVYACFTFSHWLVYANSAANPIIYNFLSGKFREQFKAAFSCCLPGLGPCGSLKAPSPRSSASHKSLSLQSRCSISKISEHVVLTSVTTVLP
Method: as §1, §2, §3, §4, §5

Molecule: 3-(3-Chloro-4-methyl-benzyl)-2-(2,6-dimethoxy-phenyl)-oxazolidin-4-one [Example 43]
- IC50 (human orexin-2 receptor): 349 nM
- IC50 (human orexin-1 receptor): 553 nM

Molecule: CCOc1ccccc1C1OCC(=O)N1Cc1ccc(Cl)c(C(F)(F)F)c1 (stereo not drawn) [Example 1, 3-(4-Chloro-3-trifluoromethyl-benzyl)-2-(2-ethoxy-phenyl)-oxazolidin-4-one]
- IC50 (human orexin-2 receptor): 263 nM
- IC50 (human orexin-1 receptor): 6490 nM

Molecule: CCOc1ccccc1C1OCC(=O)N1Cc1ccccc1C (stereo not drawn) [Example 2, 2-(2-Ethoxy-phenyl)-3-(2-methyl-benzyl)-oxazolidin-4-one]
- IC50 (human orexin-2 receptor): 223 nM
- IC50 (human orexin-1 receptor): > 10000 nM

Molecule: CCOc1ccccc1C1OCC(=O)N1Cc1ccc(C(F)(F)F)cc1 (stereo not drawn) [Example 3, 2-(2-Ethoxy-phenyl)-3-(4-trifluoromethyl-benzyl)-oxazolidin-4-one]
- IC50 (human orexin-2 receptor): 230 nM
- IC50 (human orexin-1 receptor): 9990 nM

Molecule: CCOc1ccccc1C1OCC(=O)N1Cc1cccc(OC)c1 (stereo not drawn) [Example 4, 2-(2-Ethoxy-phenyl)-3-(3-methoxy-benzyl)-oxazolidin-4-one]
- IC50 (human orexin-2 receptor): 705 nM
- IC50 (human orexin-1 receptor): > 10000 nM

Molecule: CCOc1ccccc1C1OCC(=O)N1Cc1cccc(C(F)(F)F)c1 (stereo not drawn) [Example 5, 2-(2-Ethoxy-phenyl)-3-(3-trifluoromethyl-benzyl)-oxazolidin-4-one]
- IC50 (human orexin-2 receptor): 462 nM
- IC50 (human orexin-1 receptor): > 10000 nM

Molecule: CCOc1ccccc1C1OCC(=O)N1Cc1ccc(OC(F)(F)F)cc1 (stereo not drawn) [Example 6, 2-(2-Ethoxy-phenyl)-3-(4-trifluoromethoxy-benzyl)-oxazolidin-4-one]
- IC50 (human orexin-2 receptor): 55 nM
- IC50 (human orexin-1 receptor): > 10000 nM

Molecule: CCOc1ccccc1C1OCC(=O)N1Cc1cccc(OC(F)(F)F)c1 (stereo not drawn) [Example 7, 2-(2-Ethoxy-phenyl)-3-(3-trifluoromethoxy-benzyl)-oxazolidin-4-one]
- IC50 (human orexin-2 receptor): 74 nM
- IC50 (human orexin-1 receptor): 6810 nM

Molecule: CCOc1ccccc1C1OCC(=O)N1Cc1ccc(F)c(C)c1 (stereo not drawn) [Example 8, 2-(2-Ethoxy-phenyl)-3-(4-fluoro-3-methyl-benzyl)-oxazolidin-4-one]
- IC50 (human orexin-2 receptor): 584 nM
- IC50 (human orexin-1 receptor): 9170 nM

Molecule: CCOc1ccccc1C1OCC(=O)N1Cc1ccc(F)c(Cl)c1 (stereo not drawn) [Example 9, 3-(3-Chloro-4-fluoro-benzyl)-2-(2-ethoxy-phenyl)-oxazolidin-4-one]
- IC50 (human orexin-2 receptor): 79 nM
- IC50 (human orexin-1 receptor): 8740 nM

Molecule: CCOc1ccccc1C1OCC(=O)N1Cc1cc(C(F)(F)F)cc(Cl)c1F (stereo not drawn) [Example 10, 3-(3-Chloro-2-fluoro-5-trifluoromethyl-benzyl)-2-(2-ethoxy-phenyl)-oxazolidin-4-one]
- IC50 (human orexin-2 receptor): 693 nM
- IC50 (human orexin-1 receptor): 8410 nM

Molecule: CCOc1ccccc1C1OCC(=O)N1Cc1cccc(C(F)(F)F)c1C (stereo not drawn) [Example 11, 2-(2-Ethoxy-phenyl)-3-(2-methyl-3-trifluoromethyl-benzyl)-oxazolidin-4-one]
- IC50 (human orexin-2 receptor): 385 nM
- IC50 (human orexin-1 receptor): 5410 nM

Molecule: CCOc1ccccc1C1OCC(=O)N1Cc1cc(C(F)(F)F)ccc1Cl (stereo not drawn) [Example 12, 3-(2-Chloro-5-trifluoromethyl-benzyl)-2-(2-ethoxy-phenyl)-oxazolidin-4-one]
- IC50 (human orexin-2 receptor): 590 nM
- IC50 (human orexin-1 receptor): 4040 nM

Molecule: CCOc1ccccc1C1OCC(=O)N1Cc1cc(C(F)(F)F)ccc1F (stereo not drawn) [Example 13, 2-(2-Ethoxy-phenyl)-3-(2-fluoro-5-trifluoromethyl-benzyl)-oxazolidin-4-one]
- IC50 (human orexin-2 receptor): 290 nM
- IC50 (human orexin-1 receptor): > 10000 nM

Molecule: CCOc1ccccc1C1OCC(=O)N1Cc1ccc(F)c(C(F)(F)F)c1 (stereo not drawn) [Example 14, 2-(2-Ethoxy-phenyl)-3-(4-fluoro-3-trifluoromethyl-benzyl)-oxazolidin-4-one]
- IC50 (human orexin-2 receptor): 169 nM
- IC50 (human orexin-1 receptor): > 10000 nM

Molecule: CCOc1ccccc1C1OCC(=O)N1Cc1ccc(C(F)(F)F)c(F)c1 (stereo not drawn) [Example 15, 2-(2-Ethoxy-phenyl)-3-(3-fluoro-4-trifluoromethyl-benzyl)-oxazolidin-4-one]
- IC50 (human orexin-2 receptor): 359 nM
- IC50 (human orexin-1 receptor): > 10000 nM

Molecule: CCOc1ccccc1C1OCC(=O)N1Cc1c(F)ccc(F)c1Cl (stereo not drawn) [Example 16, 3-(2-Chloro-3,6-difluoro-benzyl)-2-(2-ethoxy-phenyl)-oxazolidin-4-one]
- IC50 (human orexin-2 receptor): 3810 nM
- IC50 (human orexin-1 receptor): 590 nM

Molecule: CCOc1ccccc1C1OCC(=O)N1Cc1ccc(Cl)c(F)c1 (stereo not drawn) [Example 17, 3-(4-Chloro-3-fluoro-benzyl)-2-(2-ethoxy-phenyl)-oxazolidin-4-one]
- IC50 (human orexin-2 receptor): 627 nM
- IC50 (human orexin-1 receptor): 9370 nM

Molecule: CCOc1ccccc1C1OCC(=O)N1Cc1ccc(OC(F)(F)F)c(Cl)c1 (stereo not drawn) [Example 18, 3-(3-Chloro-4-trifluoromethoxy-benzyl)-2-(2-ethoxy-phenyl)-oxazolidin-4-one]
- IC50 (human orexin-2 receptor): 26 nM
- IC50 (human orexin-1 receptor): 8790 nM

Molecule: CCOc1ccccc1C1OCC(=O)N1Cc1ccc(Cl)cc1F (stereo not drawn) [Example 19, 3-(4-Chloro-2-fluoro-benzyl)-2-(2-ethoxy-phenyl)-oxazolidin-4-one]
- IC50 (human orexin-2 receptor): 586 nM
- IC50 (human orexin-1 receptor): 9600 nM

Molecule: CCOc1ccccc1C1OCC(=O)N1Cc1ccccc1F (stereo not drawn) [Example 20, 2-(2-Ethoxy-phenyl)-3-(2-fluoro-benzyl)-oxazolidin-4-one]
- IC50 (human orexin-2 receptor): 262 nM
- IC50 (human orexin-1 receptor): > 10000 nM

Molecule: CCOc1ccccc1C1OCC(=O)N1Cc1ccc(Cl)cc1 (stereo not drawn) [Example 21, 3-(4-Chloro-benzyl)-2-(2-ethoxy-phenyl)-oxazolidin-4-one]
- IC50 (human orexin-2 receptor): 696 nM
- IC50 (human orexin-1 receptor): > 10000 nM

Molecule: CCOc1ccccc1C1OCC(=O)N1Cc1ccc(C(F)(F)F)cc1F (stereo not drawn) [Example 22, 2-(2-Ethoxy-phenyl)-3-(2-fluoro-4-trifluoromethyl-benzyl)-oxazolidin-4-one]
- IC50 (human orexin-2 receptor): 839 nM
- IC50 (human orexin-1 receptor): > 10000 nM

Molecule: CCOc1ccccc1C1OCC(=O)N1Cc1c(Cl)cccc1Cl (stereo not drawn) [Example 23, 3-(2,6-Dichloro-benzyl)-2-(2-ethoxy-phenyl)-oxazolidin-4-one]
- IC50 (human orexin-2 receptor): 787 nM
- IC50 (human orexin-1 receptor): 1840 nM

Molecule: CCOc1ccccc1C1OCC(=O)N1Cc1cccc(C)c1 (stereo not drawn) [Example 24, 2-(2-Ethoxy-phenyl)-3-(3-methyl-benzyl)-oxazolidin-4-one]
- IC50 (human orexin-2 receptor): 363 nM
- IC50 (human orexin-1 receptor): > 10000 nM

Molecule: CCOc1ccccc1C1OCC(=O)N1Cc1ccc(F)cc1 (stereo not drawn) [Example 25, 2-(2-Ethoxy-phenyl)-3-(4-fluoro-benzyl)-oxazolidin-4-one]
- IC50 (human orexin-2 receptor): 199 nM
- IC50 (human orexin-1 receptor): > 10000 nM

Molecule: CCOc1ccccc1C1OCC(=O)N1Cc1ccc(F)c(F)c1 (stereo not drawn) [Example 26, 3-(3,4-Difluoro-benzyl)-2-(2-ethoxy-phenyl)-oxazolidin-4-one]
- IC50 (human orexin-2 receptor): 652 nM
- IC50 (human orexin-1 receptor): > 10000 nM

Molecule: CCOc1ccccc1C1OCC(=O)N1Cc1ccc(OC)cc1 (stereo not drawn) [Example 27, 2-(2-Ethoxy-phenyl)-3-(4-methoxy-benzyl)-oxazolidin-4-one]
- IC50 (human orexin-2 receptor): 353 nM
- IC50 (human orexin-1 receptor): > 10000 nM

Molecule: CCOc1ccccc1C1OCC(=O)N1Cc1cc(C)ccc1C(F)(F)F (stereo not drawn) [Example 28, 2-(2-Ethoxy-phenyl)-3-(5-methyl-2-trifluoromethyl-benzyl)-oxazolidin-4-one]
- IC50 (human orexin-2 receptor): 661 nM
- IC50 (human orexin-1 receptor): 8020 nM

Molecule: CCOc1ccccc1C1OCC(=O)N1Cc1ccc(Cl)c(Cl)c1 (stereo not drawn) [Example 29, 3-(3,4-Dichloro-benzyl)-2-(2-ethoxy-phenyl)-oxazolidin-4-one]
- IC50 (human orexin-2 receptor): 696 nM
- IC50 (human orexin-1 receptor): > 10000 nM
